# Experimental data as given in publication PMC5075806, “SIKs control osteocyte responses to parathyroid hormone” (Nature Communications, 2016).
# Assays:
# SIK3 = SIK3 (Homo sapiens, UniProt Q9Y2K2); assay: DiscoverX scanEDGE competition binding panel at […] (SIK3 listed as QSK); value in Supplementary Table […]
# SIK2 = SIK2 (Homo sapiens, UniProt Q9H0K1); assay: DiscoverX competition binding assay with DNA/phage-tagged kinase, qPCR readout, Kd curves
# Chain of SIK2 (Q9H0K1 whole entry): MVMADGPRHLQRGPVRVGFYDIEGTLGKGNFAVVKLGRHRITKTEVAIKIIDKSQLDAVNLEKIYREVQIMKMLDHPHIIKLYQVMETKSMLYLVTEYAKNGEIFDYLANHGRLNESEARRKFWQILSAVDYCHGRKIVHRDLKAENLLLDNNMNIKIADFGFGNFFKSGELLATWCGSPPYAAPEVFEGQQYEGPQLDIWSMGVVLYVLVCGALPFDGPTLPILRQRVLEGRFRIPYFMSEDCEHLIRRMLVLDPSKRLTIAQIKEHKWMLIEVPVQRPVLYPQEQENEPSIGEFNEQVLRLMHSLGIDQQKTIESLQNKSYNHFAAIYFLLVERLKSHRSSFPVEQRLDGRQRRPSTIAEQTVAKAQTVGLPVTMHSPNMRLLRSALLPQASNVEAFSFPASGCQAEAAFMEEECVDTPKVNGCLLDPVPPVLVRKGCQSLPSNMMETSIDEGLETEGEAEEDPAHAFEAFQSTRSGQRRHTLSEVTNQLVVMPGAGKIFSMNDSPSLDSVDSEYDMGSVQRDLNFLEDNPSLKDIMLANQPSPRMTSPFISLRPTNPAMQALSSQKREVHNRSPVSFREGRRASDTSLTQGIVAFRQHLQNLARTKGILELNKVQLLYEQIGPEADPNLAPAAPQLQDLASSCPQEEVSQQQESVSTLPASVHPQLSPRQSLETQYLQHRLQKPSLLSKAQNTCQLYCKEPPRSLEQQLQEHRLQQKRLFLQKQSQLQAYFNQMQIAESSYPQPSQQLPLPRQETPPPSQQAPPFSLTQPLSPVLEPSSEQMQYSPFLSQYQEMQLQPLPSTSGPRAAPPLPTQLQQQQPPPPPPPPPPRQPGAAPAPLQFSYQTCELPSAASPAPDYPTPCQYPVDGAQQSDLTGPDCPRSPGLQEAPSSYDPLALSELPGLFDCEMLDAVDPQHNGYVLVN
# Chain of SIK3 (Q9Y2K2 whole entry): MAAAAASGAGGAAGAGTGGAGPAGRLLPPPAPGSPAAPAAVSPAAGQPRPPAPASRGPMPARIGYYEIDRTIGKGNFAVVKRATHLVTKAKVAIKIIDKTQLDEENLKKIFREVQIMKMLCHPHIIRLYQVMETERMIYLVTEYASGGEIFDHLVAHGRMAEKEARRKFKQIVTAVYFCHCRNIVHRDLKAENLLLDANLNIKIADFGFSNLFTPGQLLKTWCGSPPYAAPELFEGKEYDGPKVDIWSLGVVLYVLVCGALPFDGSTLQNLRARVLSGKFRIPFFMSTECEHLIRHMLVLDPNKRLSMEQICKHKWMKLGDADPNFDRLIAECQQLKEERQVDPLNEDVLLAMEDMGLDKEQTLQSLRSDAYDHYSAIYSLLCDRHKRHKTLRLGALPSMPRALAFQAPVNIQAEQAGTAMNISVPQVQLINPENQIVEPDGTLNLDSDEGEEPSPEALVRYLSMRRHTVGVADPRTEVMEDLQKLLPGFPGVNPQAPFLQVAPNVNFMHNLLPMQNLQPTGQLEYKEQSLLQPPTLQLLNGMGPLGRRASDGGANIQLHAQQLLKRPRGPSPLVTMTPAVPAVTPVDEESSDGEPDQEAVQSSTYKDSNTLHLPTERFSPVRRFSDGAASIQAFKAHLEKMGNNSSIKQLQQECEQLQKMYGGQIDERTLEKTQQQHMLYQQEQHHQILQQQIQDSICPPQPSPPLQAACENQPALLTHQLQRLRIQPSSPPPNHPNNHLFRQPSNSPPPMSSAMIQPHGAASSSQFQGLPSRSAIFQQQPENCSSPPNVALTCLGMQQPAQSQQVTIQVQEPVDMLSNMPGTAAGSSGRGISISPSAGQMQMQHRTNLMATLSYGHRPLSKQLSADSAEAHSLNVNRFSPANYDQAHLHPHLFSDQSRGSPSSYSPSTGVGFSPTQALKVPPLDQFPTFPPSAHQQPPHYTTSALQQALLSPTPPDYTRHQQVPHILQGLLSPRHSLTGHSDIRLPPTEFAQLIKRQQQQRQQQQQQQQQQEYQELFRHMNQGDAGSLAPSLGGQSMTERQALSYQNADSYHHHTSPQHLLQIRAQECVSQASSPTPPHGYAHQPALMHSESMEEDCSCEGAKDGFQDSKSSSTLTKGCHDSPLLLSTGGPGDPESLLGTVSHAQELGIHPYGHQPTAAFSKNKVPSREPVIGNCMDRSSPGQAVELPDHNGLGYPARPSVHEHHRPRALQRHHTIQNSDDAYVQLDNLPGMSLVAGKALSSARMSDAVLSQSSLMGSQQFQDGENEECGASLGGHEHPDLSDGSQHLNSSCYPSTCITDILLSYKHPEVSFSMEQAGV
smiles,measurement,setting,value
COc1ccc(N2C(=O)N(c3c(C)cccc3C)Cc3cnc(Nc4ccc(C5CCN(C)CC5)cc4OC)nc32)c(OC)c1 [YKL-05-093],DiscoverX scanEDGE competition binding panel at 71 nM (SIK3 listed as QSK); valu,SIK3,both inhibitors potently target SIK3 in addition to SIK2
same,Kd,SIK2,7.1 nM
